Where “and” joins values, the source holds several entries; their conditions need not be identical. Identical values can stand only once. Results filed as inconclusive are left out.
Tested on: Lewis lung carcinoma i.m., BDF1 mice, T/C %
Assay: NCI In Vivo Anticancer Drug Screen. Data for tumor model Lewis Lung Carcinoma (intramuscular) in B6D2F1 (BDF1) mice
Conditions: schedule: Q01DX011 (ip)
Summary of the method: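 Antitumour activity is assessed in transplanted-tumour mice. Endpoint is survival or tumour size, normalised to vehicle-dosed controls (T/C).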

[1] = endpoint: mean tumor weight (est.), dose: 25.0 mg/kg/injection, vehicle: saline with Tween-80, higher = larger tumour
[2] = endpoint: median survival time, dose: 25.0 mg/kg/injection, vehicle: saline with Tween-80, higher = longer survival

C[C@@H]1O[C@@H](O[C@H]2CC[C@]3(C=O)[C@H]4CC[C@]5(C)[C@@H](c6ccc(=O)oc6)CC[C@]5(O)[C@@H]4CC[C@]3(O)C2)[C@H](O)[C@H](O)[C@H]1O[C@@H]1O[C@H](CO)[C@@H](O)[C@H](O)[C@H]1O was tested, and the T/C (endpoint: mean tumor weight (est.), dose: 0.63 mg/kg/injection, vehicle: saline, higher = larger tumour) was 80 % of control, the T/C (endpoint: mean tumor weight (est.), dose: 1.25 mg/kg/injection, vehicle: saline, higher = larger tumour) was 89 % of control and the T/C (endpoint: median survival time, dose: 0.63 mg/kg/injection, vehicle: saline, higher = longer survival) was 108 % of control. The T/C (endpoint: median survival time, dose: 1.25 mg/kg/injection, vehicle: saline, higher = longer survival) was 98 % of control.
With CCN1/C(=C/C=C/c2oc3ccccc3[n+]2CC)Oc2ccccc21 the T/C (endpoint: mean tumor weight (est.), dose: 3.7 micrograms/kg/injection, vehicle: saline, higher = larger tumour) was 87 % of control, the T/C (endpoint: mean tumor weight (est.), dose: 75.0 micrograms/kg/injection, vehicle: saline, higher = larger tumour) was 99 % of control and the T/C (endpoint: mean tumor weight (est.), dose: 150.0 micrograms/kg/injection, vehicle: saline, higher = larger tumour) was 103 % of control. For the same molecule, the T/C (endpoint: mean tumor weight (est.), dose: 300.0 micrograms/kg/injection, vehicle: saline, higher = larger tumour) was 86 % of control, the T/C (endpoint: median survival time, dose: 37.5 micrograms/kg/injection, vehicle: saline, higher = longer survival) was 93 % of control and the T/C (endpoint: median survival time, dose: 300.0 micrograms/kg/injection, vehicle: saline, higher = longer survival) was 87 % of control.
With OC1CCCC2CCC[N-]C12.OC1CCCC2CCC[N-]C12.[O]=[V][OH] (centres undefined) the T/C (endpoint: mean tumor weight (est.), dose: 6.25 mg/kg/injection, vehicle: saline, higher = larger tumour) was 86 % of control, the T/C (endpoint: mean tumor weight (est.), dose: 12.5 mg/kg/injection, vehicle: saline, higher = larger tumour) was 70 % of control and the T/C (endpoint: mean tumor weight (est.), dose: 25.0 mg/kg/injection, vehicle: saline, higher = larger tumour) was 50 % of control. For the same molecule, the T/C (endpoint: median survival time, dose: 6.25 mg/kg/injection, vehicle: saline, higher = longer survival) was 101 % of control, the T/C (endpoint: median survival time, dose: 12.5 mg/kg/injection, vehicle: saline, higher = longer survival) was 107 % of control and the T/C (endpoint: median survival time, dose: 25.0 mg/kg/injection, vehicle: saline, higher = longer survival) was 107 % of control.
N=[N+]=CC(=O)OCC(N)C(=O)O (centres undefined) was tested, and the T/C (endpoint: mean tumor weight, dose: 2.0 mg/kg/injection, vehicle: saline, higher = larger tumour) was 94 % of control, the T/C (endpoint: mean tumor weight, dose: 4.0 mg/kg/injection, vehicle: saline, higher = larger tumour) was 71 % of control and the T/C (endpoint: mean tumor weight, dose: 8.0 mg/kg/injection, vehicle: saline, higher = larger tumour) was 27 % of control. The T/C (endpoint: median survival time, dose: 2.0 mg/kg/injection, vehicle: saline, higher = longer survival) was 96 % of control and 107 % of control, the T/C (endpoint: median tumor weight (est.), dose: 2.0 mg/kg/injection, vehicle: saline, higher = larger tumour) was 79 % of control and the T/C (endpoint: median tumor weight (est.), dose: 8.0 mg/kg/injection, vehicle: saline, higher = larger tumour) was 50 % of control.
For Nc1nc(Cl)nc2c1ncn2C1OC(CO)C(O)C1O (centres undefined), the T/C [1] was 72 % of control, the T/C (endpoint: mean tumor weight (est.), dose: 50.0 mg/kg/injection, vehicle: saline with Tween-80, higher = larger tumour) was 72 % of control and the T/C (endpoint: mean tumor weight (est.), dose: 100.0 mg/kg/injection, vehicle: saline with Tween-80, higher = larger tumour) was 36 % of control. The T/C [2] was 102 % of control and the T/C (endpoint: median survival time, dose: 50.0 mg/kg/injection, vehicle: saline with Tween-80, higher = longer survival) was 93 % of control.
CN(Cc1ccccc1)/N=N/c1nc[nH]c1C(N)=O was tested, and the T/C (endpoint: mean tumor weight, dose: 50.0 mg/kg/injection, vehicle: saline, higher = larger tumour) was 64 % of control and the T/C (endpoint: median survival time, dose: 50.0 mg/kg/injection, vehicle: saline, higher = longer survival) was 91 % of control.
For CNC(=S)N/N=C/C(C)=N/NC(=S)NC, the T/C (endpoint: median survival time, dose: 0.2 micrograms/kg/injection, vehicle: saline with Tween-80, higher = longer survival) was 100 % of control, the T/C (endpoint: median survival time, dose: 0.5 micrograms/kg/injection, vehicle: saline with Tween-80, higher = longer survival) was 102 % of control and the T/C (endpoint: median survival time, dose: 1.0 micrograms/kg/injection, vehicle: saline with Tween-80, higher = longer survival) was 102 % of control.
For CCC[CH2][Sn](=[S])[CH2]CCC, the T/C (endpoint: mean tumor weight (est.), dose: 6.25 mg/kg/injection, vehicle: saline with Tween-80, higher = larger tumour) was 103 % of control, the T/C (endpoint: mean tumor weight (est.), dose: 12.5 mg/kg/injection, vehicle: saline with Tween-80, higher = larger tumour) was 77 % of control and the T/C [1] was 55 % of control. For the same molecule, the T/C (endpoint: median survival time, dose: 6.25 mg/kg/injection, vehicle: saline with Tween-80, higher = longer survival) was 102 % of control, the T/C (endpoint: median survival time, dose: 12.5 mg/kg/injection, vehicle: saline with Tween-80, higher = longer survival) was 116 % of control and the T/C [2] was 112 % of control.
For C[C@]12CC[C@H](OC3OC(CO)C(O)C(O)C3O)C[C@H]1CC[C@@H]1[C@@H]2CC[C@]2(C)[C@@H](C3=CCOC3=O)CC[C@]12O (some centres undefined), the T/C (endpoint: median survival time, dose: 0.25 mg/kg/injection, vehicle: saline, higher = longer survival) was 110 % of control.

Reference: PubChem BioAssay AID272 (DTP/NCI, 2004)
